Reference: paper PMC7773179, “Development and application of high-throughput screens for the discovery of compounds that disrupt ErbB4 signaling: Candidate cancer therapeutics” (PLoS ONE, 2020)

system: BaF3/EGFR+ErbB4 cells; test: IL3-dependent proliferation of BaF3/EGFR+ErbB4 cells, semi-automated MTT assay; conditions: Mus musculus, BaF3, 120 h, read-out: IC50 against 0.1 nM IL3, extrapolated value
Protocol: As noted earlier, the BaF3/EGFR+ErbB4 cells are IL3 dependent and this dependency can be rescued by stimulation of ErbB4 coupling to cell proliferation [8]. Therefore, the specificity of each of the 19 candidate ErbB4 inhibitors was tested by assaying inhibition of ErbB4-dependent and IL3-dependent cellular proliferation in parallel.

| SMILES | IC50 [µM] |
| --- | --- |
| O=S(=O)(NCc1cccnc1)c1ccc(Br)cc1Br [SR-33485] | 38 |
| O=C(Nc1cccc(O)c1)c1cc2nc(-c3ccccc3)cc(-c3ccccc3)n2n1 [SR-33487] | 2100 |
| O=C(CC1c2ccccc2Oc2ccccc21)NCCOc1ccccc1 [SR-33492] | 81 |
| O=C1NC2=Nc3ccccc3SC(c3ccccc3)=C2C(c2ccc(O)cc2)N1 (stereo not drawn) [SR-33494] | 32 |
| O=[N+]([O-])c1ccc(CN2CCN(C3CCC(c4ccccc4)CC3)CC2)cc1 (stereo not drawn) [SR-33497] | 390 |

same assay, conditions: three independent trials; 120 h MTT; NA = not active

| SMILES | IC50 against 0.1 nM IL3 |
| --- | --- |
| CCOC(=O)C1=C(N)OC2=C(C(=O)CC(C)(C)C2)C1C1CCCCC1 (stereo not drawn) [SR-33491] | no inhibition |
| COc1ccc(C2CCCN2C(=O)c2c(-c3ccccc3Cl)noc2C)cc1 (stereo not drawn) [SR-33509] | fails to inhibit |

molecular target: T1, ErbB4 (Homo sapiens, UniProt Q15303); test: phospho-ErbB4 sandwich ELISA: stimulation of ErbB4 tyrosine phosphorylation in CEM/ErbB4 cells; format: cell-based; conditions: percentage of ErbB4 tyrosine phosphorylation stimulated by 10 nM NRG1β; read-out: ErbB4 Tyrosine Phosphorylation Emax ± SE
T1 construct: expressed in transfected cells; host or cells: CEM/ErbB4 cells
T1 sequence (Q15303 26-1308): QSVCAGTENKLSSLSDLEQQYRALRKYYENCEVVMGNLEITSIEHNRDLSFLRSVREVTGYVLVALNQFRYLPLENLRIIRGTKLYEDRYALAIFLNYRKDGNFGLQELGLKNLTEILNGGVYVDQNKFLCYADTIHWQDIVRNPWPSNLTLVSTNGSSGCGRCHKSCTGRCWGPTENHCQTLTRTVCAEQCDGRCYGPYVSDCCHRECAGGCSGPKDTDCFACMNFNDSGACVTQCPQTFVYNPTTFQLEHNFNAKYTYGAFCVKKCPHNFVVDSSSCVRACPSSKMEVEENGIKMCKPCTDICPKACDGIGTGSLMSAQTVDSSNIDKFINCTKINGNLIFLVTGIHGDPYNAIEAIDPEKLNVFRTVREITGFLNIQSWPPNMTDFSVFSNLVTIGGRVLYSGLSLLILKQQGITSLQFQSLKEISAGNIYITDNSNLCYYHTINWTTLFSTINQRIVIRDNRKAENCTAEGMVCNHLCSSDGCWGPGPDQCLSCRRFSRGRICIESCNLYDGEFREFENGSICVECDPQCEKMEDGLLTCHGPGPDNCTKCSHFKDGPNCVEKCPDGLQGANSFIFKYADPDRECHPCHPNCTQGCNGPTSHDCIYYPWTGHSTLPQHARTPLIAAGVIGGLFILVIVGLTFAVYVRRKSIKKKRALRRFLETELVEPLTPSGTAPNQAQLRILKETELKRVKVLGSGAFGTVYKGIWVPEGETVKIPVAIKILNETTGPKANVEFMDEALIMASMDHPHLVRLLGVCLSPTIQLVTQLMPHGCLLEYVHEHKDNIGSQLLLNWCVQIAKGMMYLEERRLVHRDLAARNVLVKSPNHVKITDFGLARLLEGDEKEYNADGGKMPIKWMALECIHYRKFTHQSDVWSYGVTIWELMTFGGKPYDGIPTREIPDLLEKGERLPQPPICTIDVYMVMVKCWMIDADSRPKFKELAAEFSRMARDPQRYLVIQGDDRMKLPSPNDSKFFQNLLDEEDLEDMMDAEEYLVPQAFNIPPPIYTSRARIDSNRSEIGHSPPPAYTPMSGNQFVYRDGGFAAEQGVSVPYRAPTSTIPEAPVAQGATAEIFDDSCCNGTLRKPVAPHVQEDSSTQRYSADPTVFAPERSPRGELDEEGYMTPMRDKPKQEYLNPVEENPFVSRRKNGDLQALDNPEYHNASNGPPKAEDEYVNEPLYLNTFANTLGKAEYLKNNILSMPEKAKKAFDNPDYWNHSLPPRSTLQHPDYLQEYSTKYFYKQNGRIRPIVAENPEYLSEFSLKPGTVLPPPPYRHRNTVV
From the text: Our ultimate goal is the identification of ErbB4 partial agonists that inhibit coupling of ErbB4 to cell proliferation, preferably through stimulation of phosphorylation-dependent ErbB4 turnover and degradation. Thus, the first goal of these experiments is to develop and deploy an assay for stimulation of ErbB4 tyrosine phosphorylation. The CEM/ErbB4 cell line previously validated for assaying ligand-induced ErbB4 tyrosine phosphorylation was used to develop a 96-well assay for stimulation and inhibition of ErbB4 tyrosine phosphorylation. Briefly, ErbB4 tyrosine phosphorylation was assayed using a “sandwich” enzyme-linked immunosorbent assay (ELISA) kit (R&D Systems) that features an anti-ErbB4 capture antibody and an anti-phosphotyrosine detection antibody.
Lysates generated by a previously established protocol for stimulating ErbB4 tyrosine phosphorylation in CEM/ErbB4 cells were used to develop and evaluate the ELISA conditions. Briefly, the CEM/ErbB4 cells were starved for 24 hours in serum- and factor-free base medium (RPMI) before being stimulated for seven minutes on ice with NRG2β (full agonist positive control), NRG2β/Q43L (partial agonist positive control), or NRG2β diluent (mock stimulation negative control). The cells were then lysed, and the lysates were immediately assayed for ErbB4 tyrosine phosphorylation or stored at -80°C until assayed.
Ligand-induced ErbB4 tyrosine phosphorylation was stimulated using a published protocol. Briefly, the CEM/ErbB4 cells were starved for 24 hours in serum- and factor-free base medium (RPMI) before being stimulated for 7 minutes on ice with an ErbB4 ligand (NRG1β, NRG2β, or NRG2β/Q43L) or candidate small molecule ErbB4 partial agonists. The cells were then lysed using a published protocol, and the lysates were immediately assayed for ErbB4 tyrosine phosphorylation or stored at -80°C until assayed.
ErbB4 tyrosine phosphorylation was analyzed using a 96-well “sandwich” enzyme-linked immunosorbent assay (ELISA) kit from R&D Systems (Catalog number DYC2115-2), which features an anti-ErbB4 capture antibody and an anti-phosphotyrosine antibody that is coupled to horseradish peroxidase (HRP). First, each well in a 96-well flat-bottom plate (ELISA plate) was coated with the anti-ErbB4 capture antibody, which recognizes the amino terminus of ErbB4. Nonspecific binding sites were then treated with a blocking buffer (1% BSA in PBS). Lysate samples containing ErbB4 were then added to the wells and incubated to permit ErbB4 binding to the immobilized anti-ErbB4 antibody. Then, an anti-phosphotyrosine antibody tagged with HRP was used to detect and visualize the phosphorylated tyrosine residues of the immobilized ErbB4 molecules. Oxidation of 3,3´,5,5´-tetramethylbenzidine by HRP (stopped using sulfuric acid) is indicative of ErbB4 tyrosine phosphorylation and was detected by measuring absorption at 450 nm. The data generated during the course of validating these assay conditions can be found in a (S1 Data).
A Beckman Coulter Biomek 4000 automated liquid handling system was used to convert our standard, batch method for agonist stimulation of ErbB4 tyrosine phosphorylation to a semi-automated 96-well methodology. […] After stimulation, lysis buffer was added to each well and incubated for 20 minutes at 4°C with shaking. Following incubation, the plates were centrifuged at 3200 RCF for 20 minutes at 4°C.

| SMILES | Emax [%] |
| --- | --- |
| O=S(=O)(NCc1cccnc1)c1ccc(Br)cc1Br [SR-33485] | 3 ± 0.9 |
| O=C(Nc1cccc(O)c1)c1cc2nc(-c3ccccc3)cc(-c3ccccc3)n2n1 [SR-33487] | 2.7 ± 0.2 |
| CCOC(=O)C1=C(N)OC2=C(C(=O)CC(C)(C)C2)C1C1CCCCC1 (stereo not drawn) [SR-33491] | 2.8 ± 0.4 |
| O=C(CC1c2ccccc2Oc2ccccc21)NCCOc1ccccc1 [SR-33492] | 1.8 ± 0.2 |
| O=C1NC2=Nc3ccccc3SC(c3ccccc3)=C2C(c2ccc(O)cc2)N1 (stereo not drawn) [SR-33494] | 2.3 ± 0.4 |
| O=[N+]([O-])c1ccc(CN2CCN(C3CCC(c4ccccc4)CC3)CC2)cc1 (stereo not drawn) [SR-33497] | 1.8 ± 0.5 |
| COc1ccc(C2CCCN2C(=O)c2c(-c3ccccc3Cl)noc2C)cc1 (stereo not drawn) [SR-33509] | 1.4 ± 0.3 |

same assay, conditions: semi-automated; 0–30 μM; at least three independent trials; read-out: ErbB4 Tyrosine Phosphorylation EC50 ± SE

| SMILES | EC50 [µM] |
| --- | --- |
| O=S(=O)(NCc1cccnc1)c1ccc(Br)cc1Br [SR-33485] | < 0.3 |
| O=C(Nc1cccc(O)c1)c1cc2nc(-c3ccccc3)cc(-c3ccccc3)n2n1 [SR-33487] | < 0.3 |
| CCOC(=O)C1=C(N)OC2=C(C(=O)CC(C)(C)C2)C1C1CCCCC1 (stereo not drawn) [SR-33491] | 0.68 ± 0.36 |
| O=C(CC1c2ccccc2Oc2ccccc21)NCCOc1ccccc1 [SR-33492] | 4.1 ± 2.9 |
| O=C1NC2=Nc3ccccc3SC(c3ccccc3)=C2C(c2ccc(O)cc2)N1 (stereo not drawn) [SR-33494] | < 0.3 |
| O=[N+]([O-])c1ccc(CN2CCN(C3CCC(c4ccccc4)CC3)CC2)cc1 (stereo not drawn) [SR-33497] | < 0.3 |
| COc1ccc(C2CCCN2C(=O)c2c(-c3ccccc3Cl)noc2C)cc1 (stereo not drawn) [SR-33509] | 0.38 ± 0.25 |

system: BaF3/EGFR+ErbB4 cells; test: ErbB4-dependent (NRG1β-induced, IL3-independent) proliferation of BaF3/EGFR+ErbB4 cells, semi-automated MTT assay; format: cell-based, Mouse; conditions: ErbB4-dependent versus IL3-dependent proliferation
Protocol: This proliferation is dependent upon exogenous ErbB4 expression.
As noted earlier, the BaF3/EGFR+ErbB4 cells are IL3 dependent and this dependency can be rescued by stimulation of ErbB4 coupling to cell proliferation. Therefore, the specificity of each of the 19 candidate ErbB4 inhibitors was tested by assaying inhibition of ErbB4-dependent and IL3-dependent cellular proliferation in parallel.

| SMILES | selective and potent inhibition of ErbB4-dependent cell proliferation (in words) |
| --- | --- |
| O=C(Nc1cccc(O)c1)c1cc2nc(-c3ccccc3)cc(-c3ccccc3)n2n1 [SR-33487] | selectively and potently inhibit |
| CCOC(=O)C1=C(N)OC2=C(C(=O)CC(C)(C)C2)C1C1CCCCC1 (stereo not drawn) [SR-33491] | selectively and potently inhibit |
| O=C(CC1c2ccccc2Oc2ccccc21)NCCOc1ccccc1 [SR-33492] | selectively and potently inhibit |
| O=C1NC2=Nc3ccccc3SC(c3ccccc3)=C2C(c2ccc(O)cc2)N1 (stereo not drawn) [SR-33494] | selectively and potently inhibit |

same assay, conditions: Mus musculus, BaF3, read-out: IC50 against 0.3 nM NRG1β; three independent trials; 120 h MTT; *Extrapolated value

| SMILES | IC50 [µM] |
| --- | --- |
| O=[N+]([O-])c1ccc(CN2CCN(C3CCC(c4ccccc4)CC3)CC2)cc1 (stereo not drawn) [SR-33497] | 47 |
| COc1ccc(C2CCCN2C(=O)c2c(-c3ccccc3Cl)noc2C)cc1 (stereo not drawn) [SR-33509] | 32 |

same assay, conditions: Mus musculus, BaF3, read-out: IC50 against 0.3 nM NRG1β; three independent trials; 120 h MTT; NA = not active

| SMILES | IC50 [µM] |
| --- | --- |
| O=S(=O)(NCc1cccnc1)c1ccc(Br)cc1Br [SR-33485] | 13 |
| O=C(Nc1cccc(O)c1)c1cc2nc(-c3ccccc3)cc(-c3ccccc3)n2n1 [SR-33487] | 6.8 |
| CCOC(=O)C1=C(N)OC2=C(C(=O)CC(C)(C)C2)C1C1CCCCC1 (stereo not drawn) [SR-33491] | 29 |
| O=C(CC1c2ccccc2Oc2ccccc21)NCCOc1ccccc1 [SR-33492] | 12 |
| O=C1NC2=Nc3ccccc3SC(c3ccccc3)=C2C(c2ccc(O)cc2)N1 (stereo not drawn) [SR-33494] | 7 |

same assay, conditions: candidate 30 μM; increasing NRG1β; three trials; 120 h MTT

| SMILES | NRG1β Emax ± SE in the presence of candidate [AU] |
| --- | --- |
| O=S(=O)(NCc1cccnc1)c1ccc(Br)cc1Br [SR-33485] | 0.01 ± 0.02 |
| O=C(Nc1cccc(O)c1)c1cc2nc(-c3ccccc3)cc(-c3ccccc3)n2n1 [SR-33487] | 0.07 ± 0.01 |
| CCOC(=O)C1=C(N)OC2=C(C(=O)CC(C)(C)C2)C1C1CCCCC1 (stereo not drawn) [SR-33491] | 0.15 ± 0.02 |
| O=C(CC1c2ccccc2Oc2ccccc21)NCCOc1ccccc1 [SR-33492] | 0.03 ± 0.01 |
| O=C1NC2=Nc3ccccc3SC(c3ccccc3)=C2C(c2ccc(O)cc2)N1 (stereo not drawn) [SR-33494] | 0 |
| O=[N+]([O-])c1ccc(CN2CCN(C3CCC(c4ccccc4)CC3)CC2)cc1 (stereo not drawn) [SR-33497] | 0.09 ± 0.02 |
| COc1ccc(C2CCCN2C(=O)c2c(-c3ccccc3Cl)noc2C)cc1 (stereo not drawn) [SR-33509] | 0.11 ± 0.02 |
